biological target: T1, TNF-α (Homo sapiens, UniProt P01375); assay: TNF-α Induced HEK Blue Cellular Assay (secreted alkaline phosphatase expression, QUANTI-Blue); assay type: cell-based; details: HEK Blue TNFα reporter cells; TNF-α 100 μg/ml; 24 hrs at 37° C.; inhibition of secreted alkaline phosphatase; read-out: IC50 value
T1 construct: purchased R&D 210-TA-020/CF
Summary of the method: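 Compound was serially diluted from […] to 0.5 nM final, then incubated with 10,000 HEK Blue TNFα reporter cells per well and […] TNF-α for 24 h at 37° C. SEAP output was read by QUANTI-Blue absorbance at 620 nm. Inhibition was background-corrected against DMSO controls with and without stimulation, and IC50 was fitted with a 4-parameter logistic equation.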

T1 sequence (P01375 77-233 limits assumed): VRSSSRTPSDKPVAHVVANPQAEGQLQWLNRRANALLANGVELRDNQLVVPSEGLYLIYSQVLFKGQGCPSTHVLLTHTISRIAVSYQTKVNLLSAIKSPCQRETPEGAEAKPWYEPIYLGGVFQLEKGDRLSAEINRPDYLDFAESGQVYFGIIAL

Row | SMILES | IC50 [nM]
1 | [2H]C([2H])([2H])N1C(=O)c2cccc(OC(F)F)c2[C@H]2C[C@@H]1c1nc3ccc(C#Cc4cncc(F)c4)cc3n12 [Example 31, (7R,14R)-1-(difluoromethoxy)-11-((5-fluoropyridin-3-yl)ethynyl)-6-(methyl-d3)-6,7-dihydro-7,14-methanobenzo[f]benzo[4,5]imidazo[1,2-a][1,4]diazocin-5(14H)-one] | < 100
2 | [2H]C([2H])([2H])N1C(=O)c2cccc(OC(F)F)c2[C@H]2C[C@@H]1c1nc3ccc(C#Cc4cncs4)cc3n12 [Example 32, (7R,14R)-1-(difluoromethoxy)-6-(methyl-d3)-11-(thiazol-5-ylethynyl)-6,7-dihydro-7,14-methanobenzo[f]benzo[4,5]imidazo[1,2-a][1,4]diazocin-5(14H)-one] | < 100
3 | [2H]C([2H])([2H])N1C(=O)c2cccc(OC(F)F)c2[C@H]2C[C@@H]1c1nc3ccc(C#Cc4cccnn4)cc3n12 [Example 33, (7R,14R)-1-(difluoromethoxy)-6-(methyl-d3)-11-(pyridazin-3-ylethynyl)-6,7-dihydro-7,14-methanobenzo[f]benzo[4,5]imidazo[1,2-a][1,4]diazocin-5(14H)-one] | 10000 to 30000
4 | [2H]C([2H])([2H])N1C(=O)c2cccc(OC(F)F)c2[C@H]2C[C@@H]1c1nc3ccc(C#Cc4cnc(C)cn4)cc3n12 [Example 34, (7R,14R)-1-(difluoromethoxy)-6-(methyl-d3)-11-((5-methylpyrazin-2-yl)ethynyl)-6,7-dihydro-7,14-methanobenzo[f]benzo[4,5]imidazo[1,2-a][1,4]diazocin-5(14H)-one] | < 100
5 | [2H]C([2H])([2H])N1C(=O)c2cccc(OC(F)F)c2[C@H]2C[C@@H]1c1nc3ccc(C#CC4(O)CCC4)cc3n12 [Example 35, (7R,14R)-1-(difluoromethoxy)-11-((1-hydroxycyclobutyl)ethynyl)-6-(methyl-d3)-6,7-dihydro-7,14-methanobenzo[f]benzo[4,5]imidazo[1,2-a][1,4]diazocin-5(14H)-one] | 10000 to 30000
6 | [2H]C([2H])([2H])N1C(=O)c2cccc(OC(F)F)c2[C@H]2C[C@@H]1c1nc3ccc(C#Cc4cnsc4)cc3n12 [Example 36, (7R,14R)-1-(difluoromethoxy)-11-(isothiazol-4-ylethynyl)-6-(methyl-d3)-6,7-dihydro-7,14-methanobenzo[f]benzo[4,5]imidazo[1,2-a][1,4]diazocin-5(14H)-one] | < 100
7 | [2H]C([2H])([2H])N1C(=O)c2cccc(OC(F)F)c2[C@H]2C[C@@H]1c1nc3ccc(C#CC(=O)O)cc3n12 [Example 37, 3-((7R,14R)-1-(difluoromethoxy)-6-(methyl-d3)-5-oxo-5,6,7,14-tetrahydro-7,14-methanobenzo[f]benzo[4,5]imidazo[1,2-a][1,4]diazocin-11-yl)propiolic Acid] | < 100
8 | [2H]C([2H])([2H])N1C(=O)c2cccc(OC(F)F)c2[C@H]2C[C@@H]1c1nc3ccc(C#CC)cc3n12 [Example 39, (7R,14R)-1-(difluoromethoxy)-6-(methyl-d3)-11-(prop-1-yn-1-yl)-6,7-dihydro-7,14-methanobenzo[f]benzo[4,5]imidazo[1,2-a][1,4]diazocin-5(14H)-one] | < 100
9 | [2H]C([2H])([2H])N1C(=O)c2cccc(OC(F)F)c2[C@H]2C[C@@H]1c1nc3ccc(C#Cc4cnoc4)cc3n12 [Example 41, (7R,14R)-1-(difluoromethoxy)-11-(isoxazol-4-ylethynyl)-6-(methyl-d3)-6,7-dihydro-7,14-methanobenzo[f]benzo[4,5]imidazo[1,2-a][1,4]diazocin-5(14H)-one] | < 100
10 | [2H]C([2H])([2H])N1C(=O)c2cccc(OC(F)F)c2[C@H]2C[C@@H]1c1nc3ccc(C#CCOC)cc3n12 [Example 42, (7R,14R)-1-(difluoromethoxy)-11-(3-methoxyprop-1-yn-1-yl)-6-(methyl-d3)-6,7-dihydro-7,14-methanobenzo[f]benzo[4,5]imidazo[1,2-a][1,4]diazocin-5(14H)-one] | 100 to 1000
11 | [2H]C([2H])([2H])N1C(=O)c2cccc(OC(F)F)c2[C@H]2C[C@@H]1c1nc3ccc(C#CCOCC)cc3n12 [Example 43, (7R,14R)-1-(difluoromethoxy)-11-(3-ethoxyprop-1-yn-1-yl)-6-(methyl-d3)-6,7-dihydro-7,14-methanobenzo[f]benzo[4,5]imidazo[1,2-a][1,4]diazocin-5(14H)-one] | < 100

Results, then the molecule that gave them:

Row | IC50 [nM] | SMILES
12 | < 100 | [2H]C([2H])([2H])N1C(=O)c2cccc(OC(F)F)c2[C@H]2C[C@@H]1c1nc3ccc(C#C)cc3n12 [Example 44, (7R,14R)-1-(difluoromethoxy)-11-ethynyl-6-(methyl-d3)-6,7-dihydro-7,14-methanobenzo[f]benzo[4,5]imidazo[1,2-a][1,4]diazocin-5(14H)-one]
13 | < 100 | [2H]C([2H])([2H])N1C(=O)c2cccc(OC(F)F)c2[C@H]2C[C@@H]1c1nc3ccc(C#Cc4ncns4)cc3n12 [Example 45, (7R,14R)-11-((1,2,4-thiadiazol-5-yl)ethynyl)-1-(difluoromethoxy)-6-(methyl-d3)-6,7-dihydro-7,14-methanobenzo[f]benzo[4,5]imidazo[1,2-a][1,4]diazocin-5(14H)-one]
14 | 100 to 1000 | [2H]C([2H])([2H])N1C(=O)c2cccc(OC(F)F)c2[C@H]2C[C@@H]1c1nc3ccc(C#Cc4nnc(CNC)s4)cc3n12 [Example 46, (7R,14R)-1-(difluoromethoxy)-6-(methyl-d3)-11-((5-((methylamino)methyl)-1,3,4-thiadiazol-2-yl)ethynyl)-6,7-dihydro-7,14-methanobenzo[f]benzo[4,5]imidazo[1,2-a][1,4]diazocin-5(14H)-one]
15 | 10000 to 30000 | [2H]C([2H])([2H])N1C(=O)c2cccc(OC(F)F)c2[C@H]2C[C@@H]1c1nc3ccc(C#CC4CCCCN4)cc3n12 (stereo partly drawn) [Example 47, (7R,14R)-1-(difluoromethoxy)-6-(methyl-d3)-11-(piperidin-2-ylethynyl)-6,7-dihydro-7,14-methanobenzo[f]benzo[4,5]imidazo[1,2-a][1,4]diazocin-5(14H)-one]
16 | < 100 | [2H]C([2H])([2H])N1C(=O)c2cccc(OC(F)F)c2[C@H]2C[C@@H]1c1nc3ccc(C#CC4CCOCC4)cc3n12 [Example 48, (7R,14R)-1-(difluoromethoxy)-6-(methyl-d3)-11-((tetrahydro-2H-pyran-4-yl)ethynyl)-6,7-dihydro-7,14-methanobenzo[f]benzo[4,5]imidazo[1,2-a][1,4]diazocin-5(14H)-one]
17 | 100 to 1000 | [2H]C([2H])([2H])N1C(=O)c2cccc(OC(F)F)c2[C@H]2C[C@@H]1c1nc3ccc(C#CC4CCCCO4)cc3n12 (stereo partly drawn) [Example 49, (7R,14R)-1-(difluoromethoxy)-6-(methyl-d3)-11-((tetrahydro-2H-pyran-2-yl)ethynyl)-6,7-dihydro-7,14-methanobenzo[f]benzo[4,5]imidazo[1,2-a][1,4]diazocin-5(14H)-one]
18 | < 100 | [2H]C([2H])([2H])N1C(=O)c2cccc(OC(F)F)c2[C@H]2C[C@@H]1c1nc3ccc(C#C[C@@H](C)N)cc3n12 [Example 50, (7R,14R)-11-((R)-3-aminobut-1-yn-1-yl)-1-(difluoromethoxy)-6-(methyl-d3)-6,7-dihydro-7,14-methanobenzo[f]benzo[4,5]imidazo[1,2-a][1,4]diazocin-5(14H)-one]
19 | < 100 | [2H]C([2H])([2H])N1C(=O)c2cccc(OC(F)F)c2[C@H]2C[C@@H]1c1nc3ccc(C#C[C@H](C)N)cc3n12 [Example 51, (7R,14R)-11-((S)-3-aminobut-1-yn-1-yl)-1-(difluoromethoxy)-6-(methyl-d3)-6,7-dihydro-7,14-methanobenzo[f]benzo[4,5]imidazo[1,2-a][1,4]diazocin-5(14H)-one]
20 | < 100 | [2H]C([2H])([2H])N1C(=O)c2cccc(OC(F)F)c2[C@H]2C[C@@H]1c1nc3ccc(C#CC4CCNCC4)cc3n12 [Example 52, (7R,14R)-1-(difluoromethoxy)-6-(methyl-d3)-11-(piperidin-4-ylethynyl)-6,7-dihydro-7,14-methanobenzo[f]benzo[4,5]imidazo[1,2-a][1,4]diazocin-5(14H)-one]
21 | < 100 | [2H]C([2H])([2H])N1C(=O)c2cccc(OC(F)F)c2[C@H]2C[C@@H]1c1nc3ccc(C#CC4CCCO4)cc3n12 (stereo partly drawn) [Example 53, (7R,14R)-1-(difluoromethoxy)-6-(methyl-d3)-11-((tetrahydrofuran-2-yl)ethynyl)-6,7-dihydro-7,14-methanobenzo[f]benzo[4,5]imidazo[1,2-a][1,4]diazocin-5(14H)-one]
22 | 10000 to 30000 | [2H]C([2H])([2H])N1C(=O)c2cccc(OC(F)F)c2[C@H]2C[C@@H]1c1nc3ccc(C#C[C@@H](C)NCC)cc3n12 [Example 54, (7R,14R)-1-(difluoromethoxy)-11-((R)-3-(ethylamino)but-1-yn-1-yl)-6-(methyl-d3)-6,7-dihydro-7,14-methanobenzo[f]benzo[4,5]imidazo[1,2-a][1,4]diazocin-5(14H)-one]

same assay, conditions: IC50 value, HEK Blue TNFα reporter cells; TNF-α 100 μg/ml; 24 hrs at 37° C.; inhibition of secreted alkaline phosphatase

Row | IC50 [nM] | SMILES
23 | < 100 | [2H]C([2H])([2H])N1C(=O)c2cccc(OC(F)F)c2[C@H]2C[C@@H]1c1nc3ccc(C#CC(=O)OC(C)C)cc3n12 [Example 38, isopropyl 3-((7R,14R)-1-(difluoromethoxy)-6-(methyl-d3)-5-oxo-5,6,7,14-tetrahydro-7,14-methanobenzo[f]benzo[4,5]imidazo[1,2-a][1,4]diazocin-11-yl)propiolate]
24 | < 100 | [2H]C([2H])([2H])N1C(=O)c2cccc(OC(F)F)c2[C@H]2C[C@@H]1c1nc3ccc(C#CC(=O)OCC)cc3n12 [Example 40, ethyl 3-((7R,14R)-1-(difluoromethoxy)-6-(methyl-d3)-5-oxo-5,6,7,14-tetrahydro-7,14-methanobenzo[f]benzo[4,5]imidazo[1,2-a][1,4]diazocin-11-yl)propiolate]
